Data reported in US9018209B2, “Compounds and methods for the treatment of viruses and cancer” (Yale University, priority 2005, dated 2015).
Where two headings read alike, the source gives them in different places.

Assays:
IIIB strain of HIV-1 = assay: Anti-HIV-1 activity: protection of infected MT-2 cells, MTT colorimetric method; type: cell-based
MT-2 human T-cells = assay: Cytotoxicity: inhibition of MT-2 cell growth; type: cell-based
Text: The preparation of the analogues 4a-h involved the reaction between 2-bromothiazole 1 with the corresponding 5-amino-2-R-phenol 2, followed by reaction with 4-bromo-2-methyl-2-butene in presence of Cs2CO3 as a base (Scheme 1; see Table 1 for antiviral activities (EC50) and cytotoxicities (IC50) of these compounds, as determined using human MT-2 cells infected with IIIB strain of HIV-1).
See, Ruiz-Caro, supra. and Lin, et al., Biochem. Pharmacol. 1994, 47, 171-174.

[1] = Human immunodeficiency virus 1, IIIB, MT2, read-out: EC50
[2] = Homo sapiens, MT2, Table 1a, cytotoxicity, MT-2 cells, read-out: IC50
[3] = Table 1B, for 50% inhibition of MT-2 cell growth, triplicate samples
[4] = Homo sapiens, MT2, Table of bicyclic-heteroaryl phenyl amines, cytotoxicity, MT-2 cell assays, read-out: IC50
[5] = Table 1B, for 50% protection in MT-2 cells, triplicate samples, NA for EC50 > CC50, read-out: EC50
[6] = Table 1, cytotoxicity, MT-2 cells, read-out: IC50
[7] = Homo sapiens, MT2, Table 3, cytotoxicity, MT-2 cells, read-out: IC50

CC(C)=CCOc1cc(Nc2nccc(C)n2)ccc1Cl [Compound 41d, N-(4-Chloro-3-(3-methylbut-2-enyloxy)phenyl)-4-methylpyrimidin-2-amine]
EC50 (IIIB strain of HIV-1; [1]): 0.039 µM | IC50 (MT-2 human T-cells; [2]): < 0.2 µM | CC50 (MT-2 human T-cells; [3]): 0.15 µM

CC(C)=CCOc1cc(Nc2nccc3cccn23)ccc1Cl [compound 59]
EC50 (IIIB strain of HIV-1; Human immunodeficiency virus 1, IIIB, MT2, Table of bicyclic-heteroaryl phenyl amines, MT-2 cell assays, read-out: EC50): 0.13 µM | IC50 (MT-2 human T-cells; [4]): 17 µM

CC(C)=CCOc1cc(Nc2ncccn2)ccc1C#N [Compound 39h, N-(4-Cyano-3-(3-methylbut-2-enyloxy)phenyl)pyrimidin-2-amine]
EC50 (IIIB strain of HIV-1; [1]): 0.017 µM | IC50 (MT-2 human T-cells; [2]): < 0.2 µM | CC50 (MT-2 human T-cells; [3]): 0.036 µM

CCC(C)=CCOc1cc(Nc2nccs2)ccc1CC (mixture of isomers) [Compound 18e, (E/Z)-N-(4-ethyl-3-(3-methylpent-2-enyloxy)phenyl)thiazol-2-amine]
EC50 (IIIB strain of HIV-1; Table 3, thiazoles 18-23, N/A read as no activity, read-out: EC50): 10 µM | IC50 (MT-2 human T-cells; Table 3, cytotoxicity, MT-2 cells, read-out: IC50): 29 µM

COc1cc(OC)nc(Nc2ccc(Cl)c(OCC=C(C)C)c2)n1 [Compound 9h]
EC50 (IIIB strain of HIV-1; [5]): 0.25 µM | CC50 (MT-2 human T-cells; [3]): 28 µM

CC(C)=CCOc1cc(Nc2nccs2)ccc1C#N [Compound 4h, N-(4-cyano-3-(3-methylbut-2-enyloxy)phenylthiazol)-2-amine]
EC50 (IIIB strain of HIV-1; Table 1, compounds 4a-h, human MT-2 cells infected with IIIB strain of HIV-1, N/A read as no activity, read-out: EC50): 0.21 µM | EC50 (IIIB strain of HIV-1; Table 1a, heteroaryl derivatives, N/A read as no activity, read-out: EC50): 0.21 µM | IC50 (MT-2 human T-cells; [6]): 0.75 µM | IC50 (MT-2 human T-cells; Table 1a, cytotoxicity, MT-2 cells, read-out: IC50): 0.75 µM

C/C=C/COc1cc(Nc2ncccn2)ccc1Cl [Compound 11a]
fold lower potency (higher EC50) than the corresponding DMA ether (IIIB strain of HIV-1; Table 2b compounds): ca. 10 fold | EC50 (IIIB strain of HIV-1; Table 2b, derivatives of pyrimidine 11, NA for EC50 > CC50, read-out: EC50): 2.3 µM | CC50 (MT-2 human T-cells; Table 2b, MT-2 cells): 31 µM

CC(C)=CCOc1cc(Nc2ccccn2)ccc1C#N [Compound 30h, N-(4-Cyano-3-(3-methylbut-2-enyloxy)phenyl)pyridin-2-amine]
IC50 (MT-2 human T-cells; [2]): 0.29 µM

CC(C)=CCOc1cc(Nc2ccccn2)ccc1Cl [Compound 30d, N-(4-Chloro-3-(3-methylbut-2-enyloxy)phenyl)pyridin-2-amine]
IC50 (MT-2 human T-cells; [2]): 15 µM

Cc1cc(C#N)cc(C)c1Oc1nc(Nc2ccc(C#N)cc2)nc(N)c1Br [TMC125, etravirine, reference compound]
IC50 (MT-2 human T-cells; [4]): > 1 µM | CC50 (MT-2 human T-cells; [3]): > 1 µM

CCCCCCCOc1cc(Nc2nccs2)ccc1Cl [Compound 23d, N-(4-Chloro-3-(hexylmethoxy)phenyl)thiazol-2-amine]
IC50 (MT-2 human T-cells; [7]): 15 µM

CC(C)=CCOc1cc(Nc2nccc(CO)n2)ccc1Cl [Compound 9m]
CC50 (MT-2 human T-cells; [3]): 0.22 µM

Clc1ccc(Nc2nccs2)cc1OCC1CCCCC1 [Compound 22d, N-(4-Chloro-3-(cyclohexylmethoxy)phenyl)thiazol-2-amine]
IC50 (MT-2 human T-cells; [7]): 12 µM

Ethyl 2-(4-methoxy-3-(3-methylbut-2-enyloxy)phenylamino)thiazole-4-carboxylate [Compound 9c]
EC50 (IIIB strain of HIV-1; [5]): 0.075 µM

CC(C)=CC(C)Oc1cc(Nc2ncccn2)ccc1Cl (centres unmarked) [Compound 46, N-(4-chloro-3-(4-methylpent-3-en-2-yloxy)phenyl)pyrimidin-2-amine]
IC50 (MT-2 human T-cells; Homo sapiens, MT2, Table 2a, cytotoxicity, MT-2 cells, read-out: IC50): 22 µM

CC(C)=CCOc1cccc(Nc2nc(C)cs2)c1 [Compound 8a, 4-Methyl-N-(3-(3-methylbut-2-enyloxy)phenyl)thiazol-2-amine]
IC50 (MT-2 human T-cells; Homo sapiens, MT2): 26 µM

CC1=C(COc2cc(Nc3ncccn3)ccc2Cl)CCC1 [Compound 47]
IC50 (MT-2 human T-cells; Table 2a, cytotoxicity, MT-2 cells, read-out: IC50): 2.5 µM

Cc1cn([C@H]2C=C[C@@H](CO)O2)c(=O)[nH]c1=O [d4T, Stavudine, reference compound]
EC50 (IIIB strain of HIV-1; Human immunodeficiency virus 1, IIIB, text b104, read-out: anti-HIV activities in our assay): 3 µM

CCCc1ccc(Nc2nccs2)cc1OCC=C(C)C [Compound 4f, N-(4-propyl-3-(3-methylbut-2-enyloxy)phenylthiazol)-2-amine]
IC50 (MT-2 human T-cells; [6]): 31 µM

COCc1ccnc(Nc2ccc(Cl)c(OCC=C(C)C)c2)n1 [Compound 9l]
CC50 (MT-2 human T-cells; [3]): > 25 µM

COc1ccc(Nc2nc(C)cs2)cc1OCC=C(C)C [Compound 8c, 4-Methyl-N-(4-methoxy-3-(3-methylbut-2-enyloxy)phenyl)thiazol-2-amine]
IC50 (MT-2 human T-cells; Homo sapiens, MT2): 18 µM

COc1nc(Cl)nc(Nc2ccc(Cl)c(OCC=C(C)C)c2)n1 [Compound 7f]
CC50 (MT-2 human T-cells; [3]): 26 µM

CC(C)=CCOc1cc(Nc2ccccn2)ccc1C [Compound 30b, N-(4-Methyl-3-(3-methylbut-2-enyloxy)phenyl)pyridin-2-amine]
IC50 (MT-2 human T-cells; [2]): 35 µM

CC(C)=CCOc1cc(Nc2nc(C)cs2)ccc1C [Compound 8b, 4-Methyl-N-(4-methyl-3-(3-methylbut-2-enyloxy)phenyl)thiazol-2-amine]
IC50 (MT-2 human T-cells; Homo sapiens, MT2): 15 µM

(2-3-(3-Methylbut-2-enyloxy)phenylamino)thiazol-4-yl)methanol [Compound 10a]
IC50 (MT-2 human T-cells; Table 2, cytotoxicity, MT-2 cells, read-out: IC50): 38 µM

Cc1ccnc2c1NC(=O)c1cccnc1N2C1CC1 [Nevirapine, nevirapine, reference compound]
IC50 (MT-2 human T-cells; [2]): > 10 µM | IC50 (MT-2 human T-cells; [4]): > 10 µM | CC50 (MT-2 human T-cells; [3]): > 10 µM
